# Measured values from PubChem BioAssay (NCI).
# Values joined by “and” are separate entries in the source; they are usually repeats but may differ in a detail not shown here. Identical values can stand only once.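 Compound exposure: 48 hours, 5 concentrations, 96-well plates. GI50 = concentration required for 50% inhibition of growth. TGI: concentration producing complete growth inhibition.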 Where a SMILES comes first, the peptide text is derived from it. The star is where a group is joined. Palmitoyl = CCCCCCCCCCCCCCCC(=O)*
# Assays:
# Experiment in all cases: NCI-60 cell line screen, 48 h
# OVCAR-8 ovarian = tested on: OVCAR-8 ovarian
# BT-549 breast = tested on: BT-549 breast
# UACC-257 melanoma = tested on: UACC-257 melanoma
# EKVX NSCLC = tested on: EKVX NSCLC
# SF-268 CNS = tested on: SF-268 CNS
# HT29 colon = tested on: HT29 colon
# NCI-H522 lung = tested on: NCI-H522 lung
# OVCAR-4 ovarian = tested on: OVCAR-4 ovarian
# HL-60(TB) leukemia = tested on: HL-60(TB) leukemia
# IGROV1 ovarian = tested on: IGROV1 ovarian
Compound,TGI (OVCAR-8 ovarian) [µM],TGI (BT-549 breast) [µM],TGI (UACC-257 melanoma) [µM],TGI (EKVX NSCLC) [µM],TGI (SF-268 CNS) [µM],TGI (HT29 colon) [µM],TGI (NCI-H522 lung) [µM],TGI (OVCAR-4 ovarian) [µM],TGI (HL-60(TB) leukemia) [µM],TGI (IGROV1 ovarian) [µM],GI50 (OVCAR-8 ovarian) [µM],GI50 (BT-549 breast) [µM],GI50 (UACC-257 melanoma) [µM],GI50 (EKVX NSCLC) [µM],GI50 (SF-268 CNS) [µM],GI50 (HT29 colon) [µM],GI50 (NCI-H522 lung) [µM],GI50 (OVCAR-4 ovarian),GI50 (HL-60(TB) leukemia) [µM],GI50 (IGROV1 ovarian) [µM]
CO/N=C(/C(=O)OC)c1ccccc1COc1ccccc1C(F)(F)F,> 100,> 100,88.7,62.9,> 100,> 100,56.3,57.9,51.3,> 100,–,–,–,–,–,–,–,–,–,–
CC(C)(C)OC(=O)NC(CSSCC(NC(=O)OC(C)(C)C)C(=O)O)C(=O)O (stereo unspecified),> 100,> 100,> 100,> 100,> 100,> 100,> 100,> 100,> 100,> 100,–,–,–,–,–,–,–,–,–,–
c1ccc(C2=NOC(c3ccccc3)N2C23CC4CC(CC(C4)C2)C3)cc1 (stereo unspecified),> 10,> 10,> 10,> 10,> 10,> 10,> 10,> 10,> 10,> 10,–,–,–,–,–,–,–,–,–,–
CC(C)Oc1cccc(N2C(=NCc3c[nH]c4ccccc34)Nc3ccncc3S2(=O)=O)c1,> 100,> 100,> 100,79,> 100,> 100,87.2,> 100,> 100,> 100,–,–,–,–,–,–,–,–,–,–
Nc1ncnc2c1ccn2C/C=C/CO,> 100,> 100,> 100,> 100,> 100,> 100,> 100,> 100,> 100,> 100,–,–,–,–,–,–,–,–,–,–
CCCCCCCCCCCCCCCC(=O)N1CCCC1C(=O)NCC(=O)NC(Cc1ccccc1)C(=O)N1CCCC1C(=O)NC(CO)C(=O)NC(Cc1ccc(O)cc1)C(=O)NC(CCCCN)C(=O)NC(CC(C)C)C(=O)NC(CCCN=C(N)N)C(=O)N1CCCC1C(=O)NCC(N)=O (stereo unspecified) (Palmitoyl-PGFPSYKLRPG-NH2; configuration not given here),55.4,43.2,31,44.5,30.6,29.3,60.3,81.8,52.9,48.8,22.1,20.8,14.6,15.7,12.4,15.8,25.1,30.1 µM,18.7,18.6
O=[N+]([O-])c1cc2oc(CSc3ccccc3)nc2cc1Cl,> 100,80.8,82.2,> 100,> 100,> 100,> 100,> 100,> 100,> 100,–,–,–,–,–,–,–,–,–,–
COc1cc(O)c2c(=O)c(OC)c(-c3ccc(OC)c(O)c3)oc2c1,> 100,> 100,> 100,> 100,> 100,> 100,> 100,> 100,> 100,> 100,–,–,–,–,–,–,–,–,–,–
CC1(C)C=CC(=O)C(O)C(C)(C)C1=O (stereo unspecified),> 100,> 100,> 100,> 100,> 100,> 100,89.4,> 100,> 100,> 100,–,–,–,–,–,–,–,–,–,–
Cc1ccc(/C=C2/N=C(N/N=C\C(O)C(O)C(O)C(O)CO)NC2=O)cc1 (stereo unspecified),> 100,> 100,> 100,> 100,> 100,> 100,> 100,> 100,> 100,> 100,–,–,–,–,–,–,–,85.1 µM and > 100 µM and 39.2 µM,–,–
Clc1ccc(C=NC23CC4CC(CC(C4)C2)C3)c(Cl)c1,> 10,> 10,> 10,> 10,> 10,> 10,> 10,> 10,> 10,> 10,–,–,–,–,–,–,–,–,–,–
CCOC(=O)CC/C(=N/Nc1ccc(Cl)cc1[N+](=O)[O-])C(=O)OCC,> 100,> 100,> 100,> 100,> 100,> 100,> 100,> 100,> 100,> 100,–,–,–,–,–,–,–,–,–,–
C=C1C(=O)[C@@]23CC[C@@H]4[C@@]5(C)CCC[C@@]4(OC5=O)[C@@]2(C)CC[C@@H]1C3,8.54,3.24,4.06,11.8,6.12,10.6,2.43,5.28,> 100,4.99,–,–,–,–,–,–,–,–,–,–
CCOC(=O)C(NC(=O)CC)(N1CCN(c2cc3c(cc2F)c(=O)c(C(=O)O)cn3C2CC2)CC1)C(F)(F)F (stereo unspecified),> 100,> 100,> 100,> 100,> 100,> 100,> 100,> 100,> 100,> 100,–,–,–,–,–,–,–,–,–,–
C=C(C)[C@H]1C2=CC(C(=O)OC)=C(C[C@H](C(=C)C)[C@@H](O)[C@@H](O)C3=C[C@H]1OC3=O)O2,> 100,> 100,> 100,> 100,> 100,> 100,> 100,> 100,> 100,> 100,–,–,–,–,–,–,–,–,–,–
CC1=C(C#N)c2nc3ccccc3n2C(=O)C1(C)CCO (stereo unspecified),> 100,> 100,> 100,> 100,> 100,> 100,> 100,> 100,> 100,> 100,–,–,–,–,–,–,–,–,–,–
CC12c3c4ccc(C=O)c3Oc3ccc(C=O)c(c31)Oc1ccc(C=O)c(c12)O4,> 25,> 25,> 25,> 25,> 25,> 25,> 25,> 25,> 25,> 25,–,–,–,–,–,–,–,–,–,–

Compound,TGI (OVCAR-8 ovarian) [µM],TGI (BT-549 breast) [µM],TGI (UACC-257 melanoma) [µM],TGI (EKVX NSCLC) [µM],TGI (SF-268 CNS) [µM],TGI (HT29 colon) [µM],TGI (NCI-H522 lung) [µM],TGI (OVCAR-4 ovarian) [µM],TGI (HL-60(TB) leukemia) [µM],TGI (IGROV1 ovarian) [µM],GI50 (OVCAR-8 ovarian) [µM],GI50 (BT-549 breast) [µM],GI50 (UACC-257 melanoma) [µM],GI50 (EKVX NSCLC) [µM],GI50 (SF-268 CNS) [µM],GI50 (HT29 colon) [µM],GI50 (NCI-H522 lung) [µM],GI50 (OVCAR-4 ovarian),GI50 (HL-60(TB) leukemia) [µM],GI50 (IGROV1 ovarian) [µM]
O=C(c1ccccc1)c1ccc2c(c1)NC(=O)c1ccccc1SSc1ccccc1C(=O)N2,> 100,> 100,> 100,> 100,> 100,> 100,> 100,> 100,> 100,> 100,–,–,–,–,–,–,–,–,–,–
OCCCc1ccc2c(c1)[C@H](CO)[C@@H](c1ccc(O)cc1)O2,> 100,47.8,> 100,> 100,> 100,> 100,> 100,30.4,> 100,> 100,–,–,–,–,–,–,–,–,–,–
Cc1cc(N(C)C)c2ccccc2[n+]1CCCCCCCCCC[n+]1c(C)cc(N(C)C)c2ccccc21,16,15.4,2.3,35.3,33.3,> 35,> 29.7,22.2,2.18,> 20.6,–,–,–,–,–,–,–,–,–,–
CC1OC(O[C@H]2C3C=CO[C@@H](OC4OC(CO)C(O)C(O)C4O)C3[C@@]3(COC(=O)/C=C/c4ccccc4)O[C@@H]23)C(O)C(O)C1O (stereo partly specified),> 100,> 100,> 100,> 100,> 100,> 100,> 100,> 100,> 100,> 100,–,–,–,–,–,–,–,–,–,–
C=CCn1c(=O)ccn(/C(=C/C(=O)OCC)C(=O)OCC)c1=O,31.5,29.3,28.7,38.2,42.1,27.9,7.57,> 51.4,3.98,29.7,–,–,–,–,–,–,–,–,–,–
COc1cc(Nc2ccc3c(c2)CCC3)nc(OC)n1,> 100,> 100,> 100,> 100,> 100,51.4,84.5,> 100,> 100,> 100,–,–,–,–,–,–,–,–,–,–
CCOC(=O)/C(C(C)=O)=C(\OC(C)=O)c1ccncc1C(=O)O,> 100,> 100,> 100,> 100,> 100,> 100,> 100,> 100,> 100,> 100,–,–,–,–,–,–,–,–,–,–
O=c1c2c(no[n+]2[O-])c2ccccc2n1-c1ccccc1,11.1,8.56,22,24.5,20.1,15.5,3.27,> 46.4,15.3,10,–,–,–,–,–,–,–,–,–,–
CNc1[nH]c(=S)nc2sc3c(c12)CCCC3,> 75,> 75,> 75,> 75,> 75,> 75,> 75,> 75,> 75,> 75,–,–,–,–,–,–,–,–,–,–
O=C1CSC2(CC(/C=C/c3cccs3)=NN2c2cccc(S(=O)(=O)O)c2)N1c1nc2ccccc2s1 (stereo unspecified),> 100,> 100,> 100,> 100,> 100,> 100,> 100,> 100,> 100,> 100,–,–,–,–,–,–,–,–,–,–
O=C(O)C(O)C(O)C(O)C(O)CO (stereo unspecified),> 100,> 100,> 100,> 100,> 100,> 100,> 100,> 100,> 100,> 100,–,–,–,–,–,–,–,–,–,–
CC(C)(C)c1ccc2c(c1)C#Cc1cc3c(cc1OCCCO2)C#Cc1cc(C(C)(C)C)ccc1OCCCO3,> 100,3.39,> 100,> 100,> 100,> 100,> 100,> 100,> 100,> 100,–,–,–,–,–,–,–,–,–,–
O=C(CNc1ccc(Cl)cc1Cl)Nn1c(-c2ccccc2)nc2ccccc2c1=O,> 100,34.5,48.6,35.5,21.6,37.6,25.7,32.2,> 100,42.2,–,–,–,–,–,–,–,–,–,–
O=C(CCSC1=NCCCN1)c1ccc(F)cc1,> 94.3,35.7,36.5,27.5,67.1,40.5,3.86,> 100,30.4,44.4,–,–,–,–,–,–,–,–,–,–
CCOc1c(OC)cc(-c2nc3n(n2)C(=O)C(CC)S3)cc1OC (stereo unspecified),> 10,> 10,> 10,> 10,> 10,> 10,> 10,> 10,> 10,> 10,–,–,–,–,–,–,–,–,–,–
CC(C)N1CCN(c2ccc(OCC3COC(Cn4cncn4)(c4ccc(Cl)cc4Cl)O3)cc2)CC1 (stereo unspecified),39.2,30,3.77,30.6,28.8,13.4,30.4,35.6,33.3,33.6,–,–,–,–,–,–,–,–,–,–
